The text below walks through data of US11498921B1, “Pyrimidine or pyridine compounds, preparation method therefor and pharmaceutical uses thereof” (INVENTISBIO CO., LTD., priority 2014, dated 2022).

Series [1] has as its system NCI-H2073 cells (wild-type EGFR human non-small cell lung cancer). As to the kind of experiment: Cell growth inhibition (Cell Titer-Glo), NCI-H2073. Type of series: cell-based. Conditions: 72 hours drug treatment, 3 nM to 10 μM. The method, then: Experiment of Cell Growth Inhibition
The compounds that were preferentially targeted for EGFR targeting certain mutations and relatively weak in wild-type EGFR were identified by determining the growth of cells. The NCI-H1975 cell line is a human non-small cell lung cancer cell containing T790M and L858R EGFR mutations, and the cell is grown in RPMI-1640 medium (GIBCO) containing 10% fetal bovine serum (FBS). The LoVo cell line is a wild-type EGFR human colon adenocarcinoma cell, and is grown in F-12K medium (GIBCO) containing 10% FBS. NCI-H2073 cell line is a wild-type EGFR human non-small cell lung cancer cell and grown in ACL-4 medium containing 10% FBS. The growth rate of NCI-H1975, LoVo and NCI-H2073 cells was detected by Cell Titer-Glo luminescence activity assay (Promega #G7572).
Briefly, trypsin was used for digesting cells in the logarithmic growth phase. 96-well plates were seeded with 50,000 Lovo or NCI-H2073 cells, 2500-3000 NCI-H1975 cells per well and provided with blank control wells containing only nutrient solution without inoculated cell, and the plates were incubated in a humidified incubator with 5% CO2 at 37° C. After 24 hours, the DMSO solution of the different compounds was diluted with a cell culture medium at 3.16 times per time to eight different concentrations from high to low levels. The concentration of test drug in NCI-H1975 cells was from 0.03 nM to 100 nM, and that in LoVo and NCI-H2073 cells was from 3 nM to 10 μM. The cell culture medium containing the different compounds was then added to a 96-well cell plate in which one cell control well comprising cell culture medium only containing DMSO was provided. After a drug treatment for 72 hours, the cell plates were removed from the incubator and allowed to stand at room temperature for 30 minutes. Next, Cell Titer-Glo reagent was added to the wells and the 96-well cell plate was shaken at room temperature for 10 minutes to induce cell lysis. The 96-well cell plate was placed on the bench for 2 minutes to stabilize the luminescence signal. Finally, the 96-well cell plate was placed in an EnVision Multi-labeled Microplate Reader (PerkinElmer), and the signal was read with an integral time of 0.5 seconds.
Formula: Percentage of cell growth inhibition %=(maximum signal−compound signal)/(maximum signal−minimum signal)*100%
The maximal signal was obtained from the cell control well which were treated with the DMSO solution having no any compound;
The compound signal was obtained from the drug-treated cell wells to which the compound was added;
The minimum signal was obtained from a blank control well to which no cells and only nutrient solution was added.

The nature of series [2]: Concentration of parent drug and metabolite AZ5104 in rat plasma. Type of series: in vivo. Particulars: po, adult male rats, intragastrically, 10 mg/kg, 0.25-24 hours. The method, then: Comparison of the concentration of the metabolite AZ5104 in rats' body plasma of the pyrimidine compounds according to the present invention and AZD9291
Briefly, AZD9291 or the compound 49.(HCl)n of Example 49 or the compound 104.(MsOH) of Example 104 were administered intragastrically to 200-220 g of adult male rats at amount of 10 mg/kg. Each administration group had two to three rats. After administration, 150 μl of blood was extracted from the vein on the rat tail at different times (0.25, 0.5, 1, 2, 4, 6, 8, 12 and 24 hours), put in a tube with K2EDTA and placed immediately on ice. Then, the blood sample was centrifuged in centrifuge with a 4-degree at a speed of 2000 g for 15 minutes. The plasma was separated and placed in a small tube and stored in a refrigerator at −80° C. The concentration of parent drug and metabolite in plasma sample was analyzed by LC/MS.

Series [3] concerns NCI-H1975 cells (T790M and L858R EGFR mutations). As to the kind of experiment: Cell growth inhibition (Cell Titer-Glo), NCI-H1975. The series is classed as cell-based. Particulars: Homo sapiens, 72 hours drug treatment, 0.03 nM to 100 nM. On the technique in general: Cellular ATP, detected with luciferase, serves as a proxy for viable cell number.
The subject of series [4] is LoVo cells (wild-type EGFR human colon adenocarcinoma). As to the kind of experiment: Cell growth inhibition (Cell Titer-Glo), LoVo. Type of series: cell-based. Conditions: 72 hours drug treatment, 3 nM to 10 μM.

Each structure is given as a SMILES string. pIC50: −log10 of the molar value. Where a name gives a salt, the structure may show the parent alone.

In general, pIC50 refers to the negative decadic logarithm of the IC50, by convention in mol/L. A higher pIC50 goes with a small IC50. In general, AUC refers to the area under the concentration-time curve, a measure of exposure. Take `C=CC(=O)Nc1cc(Nc2nccc(-c3cn(CC(F)(F)F)c4ccccc34)n2)c(OC)cc1N(C)CCN(C)C` [104. (MsOH)2]: the pIC50 was 6.01 in series [1] and 7.78 in series [3]. Further, the AUC in series [2] is 1.49 µM·h.

As to `C=CC(=O)Nc1cc(Nc2nccc(-c3cn(S(C)(=O)=O)c4ccccc34)n2)c(OC)cc1N(C)CCN(C)C` [49. (HCl)n], the pIC50 in series [1] is 6.87; in series [4], 5.65; in series [3], 9.15. Also, the AUC in series [2] was 0.91 µM·h.

In the case of `C=CC(=O)Nc1cc(Nc2nccc(-c3nn(C)c4ccccc34)n2)c(OC)cc1N(C)CCN(C)C` [1. (HCl)n], the values for the pIC50 in series [1], in series [4] and in series [3] were 6.64, 5.65 and 8.27, respectively.

With `C=CC(=O)Nc1cc(Nc2nccc(-n3cc(C)c4ccccc43)n2)c(OC)cc1N(C)CCN(C)C` [4. (MsOH)3], the pIC50 in series [1] was 6.30; in series [4] it was 5.59; in series [3], 8.07.

In the case of `C=CC(=O)Nc1cc(Nc2nccc(-c3cn(C)c4ccccc34)n2)c(OC)cc1OCCN(C)C` [29. (MsOH)2], the pIC50 in series [1] was 5.60; in series [4], 5.60; in series [3], 7.89.

`C=CC(=O)Nc1cc(Nc2nccc(-c3cn(C)c4ccccc34)n2)c(OC)cc1N(C)CCN(C)C` [AZD9291, reference compound]: the exposure (AUC) in series [2] was determined as 0.64 µM·h.

As to `C=CC(=O)Nc1cc(Nc2nccc(-c3cn(C)c4ccccc34)n2)c(OC)cc1N(CC)CCN(C)C` [9. (MsOH)2], the pIC50 in series [1] is 5.95; in series [4], 5.69; in series [3], 7.89.

In the case of `C=CC(=O)Nc1cc(Nc2nccc(-c3cn(C)c4ccccc34)n2)c(OC)cc1N1CC(N2CCC2)C1` [Example 22], the values for the pIC50 in series [1], in series [4] and in series [3] were under 5.00, under 5.00 and 7.69, respectively.
